Laboratory results published in patent publication US11566057B2, “Long-acting co-agonists of the glucagon and GLP-1 receptors” (Merck Sharp & Dohme Corp., priority 2017, dated 2023).
Read-outs that look alike come from different tables or passages of the source. Numbered stars: 1 amine (or outer) side, 2 acyl side, 3 side chain; on linkers, the order of the positions; unused ones are H or OH. Square brackets hold non-standard residues; d marks the D form. Side chains are listed from the residue outwards. Peptide text beside a SMILES is read from it. * marks the point of attachment. C20 diacid = O=C(O)CCCCCCCCCCCCCCCCCCC(=O)*; Phe(4-CH2NH2) = NCc1ccc(C[C@H](N)C(=O)O)cc1; C18 diacid = O=C(O)CCCCCCCCCCCCCCCCC(=O)*; C16 diacid = O=C(O)CCCCCCCCCCCCCCC(=O)*; γGlu = O=C(O)[C@H](CCC(=O)[*:2])N[*:1]; Met(O2) = CS(=O)(=O)CC[C@H](N)C(=O)O; αMeD = C[C@](N)(CC(=O)O)C(=O)O; αMeS = C[C@](N)(CO)C(=O)O; AEEA = NCCOCCOCC(=O)O; Aib = CC(C)(N)C(=O)O

What was measured:
[1] = target: T1, human GCGR (Homo sapiens, UniProt P47871); test: cAMP activity assay at the Glucagon receptor (GCGR); type: cell-based; details: for hGCGR/hGLP1R (hTone): ratio of GCGR EC50 to GLP1R EC50
T1 construct: expressed in transfected cells; growth medium holds Blasticidin and Hygromycin
T1 sequence (P47871 26-477): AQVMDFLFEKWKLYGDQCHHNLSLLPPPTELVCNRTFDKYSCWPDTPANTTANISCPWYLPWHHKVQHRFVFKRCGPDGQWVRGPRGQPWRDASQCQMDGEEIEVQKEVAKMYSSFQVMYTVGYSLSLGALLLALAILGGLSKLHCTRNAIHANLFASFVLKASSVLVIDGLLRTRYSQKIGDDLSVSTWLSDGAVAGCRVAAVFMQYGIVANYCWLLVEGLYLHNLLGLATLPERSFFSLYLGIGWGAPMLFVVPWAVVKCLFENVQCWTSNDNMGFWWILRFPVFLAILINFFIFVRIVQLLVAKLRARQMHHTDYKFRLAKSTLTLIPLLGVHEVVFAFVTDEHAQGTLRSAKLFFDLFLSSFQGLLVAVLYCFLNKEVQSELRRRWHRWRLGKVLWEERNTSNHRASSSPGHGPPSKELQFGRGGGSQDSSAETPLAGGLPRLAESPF
Procedure, shortened: (§1)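 Peptides serially diluted from DMSO (10 points) and added to frozen-stock cells bearing human GLP1R (10,000 cells/well) or GCGR (30,000 cells/well), 1 h at RT, dark. EC50 by four-parameter logistic fit of HitHunter cAMPXS luminescence, read following overnight RT incubation.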

[2] = target: T2, human GLP1R (Homo sapiens, UniProt P43220); test: cAMP activity assay at the GLP-1 receptor (GLP1R); type: cell-based
T2 construct: expressed in transfected cells; growth medium holds Blasticidin and Hygromycin
T2 sequence (P43220 24-463): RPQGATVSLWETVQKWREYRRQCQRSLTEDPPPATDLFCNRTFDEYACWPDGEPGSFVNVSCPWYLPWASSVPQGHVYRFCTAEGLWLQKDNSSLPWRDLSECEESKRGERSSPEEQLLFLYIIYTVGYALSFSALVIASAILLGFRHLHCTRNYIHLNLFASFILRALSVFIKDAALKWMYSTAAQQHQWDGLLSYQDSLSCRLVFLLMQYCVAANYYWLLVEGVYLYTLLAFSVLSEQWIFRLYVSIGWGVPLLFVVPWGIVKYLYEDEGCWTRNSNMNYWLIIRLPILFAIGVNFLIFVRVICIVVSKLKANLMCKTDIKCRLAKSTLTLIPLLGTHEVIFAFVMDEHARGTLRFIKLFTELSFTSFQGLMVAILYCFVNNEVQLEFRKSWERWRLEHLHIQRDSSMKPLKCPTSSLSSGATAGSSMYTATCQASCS
Procedure, shortened: as §1

[3] = summary statement: EC50 at each of the glucagon and GLP-1 receptors, read-out: EC50 at the glucagon receptor
[4] = summary statement: EC50 at each of the glucagon and GLP-1 receptors, read-out: EC50 at the GLP-1 receptor
[5] = cells expressing human GLP1R, cAMP production, buffer with or without 20% human serum (not stated which), read-out: GLP1R EC50 human

Structure (SMILES)	hGCGR/hGLP1R (hTone) [1]	EC50 [1, 3] [nM]	EC50 [2, 4] [nM]	EC50 [2, 5] [nM]	EC50 ([1]; cells expressing human GCGR, cAMP production, buffer with or without 20% human serum (not stated which), read-out: GCGR EC50 human) [nM]
CC(C)C[C@H](NC(=O)[C@H](Cc1ccc(O)cc1)NC(=O)[C@H](CCCCN)NC(=O)[C@H](CO)NC(=O)[C@H](Cc1ccc(O)cc1)NC(=O)[C@H](CC(=O)O)NC(=O)[C@H](CO)NC(=O)[C@@H](NC(=O)[C@H](Cc1ccccc1)NC(=O)[C@@H](NC(=O)CNC(=O)[C@H](CCC(N)=O)NC(=O)C(C)(C)NC(=O)[C@@H](N)Cc1c[nH]cn1)[C@@H](C)O)[C@@H](C)O)C(=O)N[C@@H](CC(=O)O)C(=O)N[C@@H](C)C(=O)N[C@@H](CCCNC(=N)N)C(=O)N[C@@H](C)C(=O)N[C@@H](C)C(=O)N[C@@H](CCC(N)=O)C(=O)N[C@@H](CCCCNC(=O)COCCOCCNC(=O)COCCOCCNC(=O)CC[C@H](NC(=O)CCCCCCCCCCCCCCC(=O)O)C(=O)O)C(=O)N[C@@H](Cc1ccccc1)C(=O)N[C@H](C(=O)N[C@@H](CCC(N)=O)C(=O)N[C@@H](Cc1c[nH]c2ccccc12)C(=O)N[C@@H](CC(C)C)C(=O)N[C@@H](CCS(C)(=O)=O)C(=O)N[C@@H](CCC(=O)O)C(=O)N[C@H](C(N)=O)[C@@H](C)O)C(C)C [TP825] (H-H[Aib]QGTFTSDYSKYLDARAAQK([AEEA-AEEA-γGlu-C16 diacid])FVQWL[Met(O2)]ET-NH2; N-terminus assumed)	2.0	< 5	< 5	–	–
CC(C)C[C@H](NC(=O)[C@H](Cc1ccc(O)cc1)NC(=O)[C@H](CCCCN)NC(=O)[C@H](CO)NC(=O)[C@H](Cc1ccc(O)cc1)NC(=O)[C@H](CC(=O)O)NC(=O)[C@H](CO)NC(=O)[C@@H](NC(=O)[C@H](Cc1ccccc1)NC(=O)[C@@H](NC(=O)CNC(=O)[C@H](CCC(N)=O)NC(=O)C(C)(C)NC(=O)[C@@H](N)Cc1c[nH]cn1)[C@@H](C)O)[C@@H](C)O)C(=O)N[C@@H](CC(=O)O)C(=O)N[C@@H](C)C(=O)N[C@@H](CCCNC(=N)N)C(=O)N[C@@H](C)C(=O)N[C@@H](C)C(=O)N[C@@H](CCC(N)=O)C(=O)N[C@@H](CC(=O)O)C(=O)N[C@@H](Cc1ccccc1)C(=O)N[C@H](C(=O)N[C@@H](CCC(N)=O)C(=O)N[C@@H](Cc1c[nH]c2ccccc12)C(=O)N[C@@H](CC(C)C)C(=O)N[C@@H](CCS(C)(=O)=O)C(=O)N[C@@H](CCCCNC(=O)COCCOCCNC(=O)COCCOCCNC(=O)CC[C@H](NC(=O)CCCCCCCCCCCCCCCCCCC(=O)O)C(=O)O)C(=O)N[C@H](C(N)=O)[C@@H](C)O)C(C)C [TP603] (H-H[Aib]QGTFTSDYSKYLDARAAQDFVQWL[Met(O2)]K([AEEA-AEEA-γGlu-C20 diacid])T-NH2; N-terminus assumed)	1.6	< 5	< 5	–	–
CC(C)C[C@H](NC(=O)[C@H](Cc1ccc(O)cc1)NC(=O)[C@H](CCCCN)NC(=O)[C@H](CO)NC(=O)[C@H](Cc1ccc(CNC(=O)COCCOCCNC(=O)CC[C@H](NC(=O)CCCCCCCCCCCCCCCCC(=O)O)C(=O)O)cc1)NC(=O)[C@H](CC(=O)O)NC(=O)[C@H](CO)NC(=O)[C@@H](NC(=O)[C@H](Cc1ccccc1)NC(=O)[C@@H](NC(=O)CNC(=O)[C@H](CCC(N)=O)NC(=O)C(C)(C)NC(=O)[C@@H](N)Cc1c[nH]cn1)[C@@H](C)O)[C@@H](C)O)C(=O)N[C@@H](CC(=O)O)C(=O)N[C@@H](C)C(=O)N[C@@H](CCCNC(=N)N)C(=O)N[C@@H](C)C(=O)N[C@@H](C)C(=O)N[C@@H](CCC(N)=O)C(=O)N[C@@H](CC(=O)O)C(=O)N[C@@H](Cc1ccccc1)C(=O)N[C@H](C(=O)N[C@@H](CCC(N)=O)C(=O)N[C@@H](Cc1c[nH]c2ccccc12)C(=O)N[C@@H](CC(C)C)C(=O)N[C@@H](CCS(C)(=O)=O)C(=O)N[C@@H](CC(=O)O)C(=O)N[C@H](C(N)=O)[C@@H](C)O)C(C)C [TP623] (H-H[Aib]QGTFTSD[Phe(4-CH2NH2)]([AEEA-γGlu-C18 diacid])SKYLDARAAQDFVQWL[Met(O2)]DT-NH2)	0.5	< 5	< 5	–	–

Further lines, results first:

hGCGR/hGLP1R (hTone) [1]	EC50 [1, 3] [nM]	EC50 [2, 4] [nM]	EC50 [2, 5] [nM]	EC50 ([1]; cells expressing human GCGR, cAMP production, buffer with or without 20% human serum (not stated which), read-out: GCGR EC50 human) [nM]	Structure (SMILES)
1.4	< 5	< 5	–	–	CC(C)C[C@H](NC(=O)[C@H](Cc1ccc(O)cc1)NC(=O)[C@H](CCCCN)NC(=O)[C@H](CO)NC(=O)[C@H](Cc1ccc(O)cc1)NC(=O)[C@H](CC(=O)O)NC(=O)[C@H](CO)NC(=O)[C@@H](NC(=O)[C@H](Cc1ccccc1)NC(=O)[C@@H](NC(=O)CNC(=O)[C@H](CCC(N)=O)NC(=O)C(C)(C)NC(=O)[C@@H](N)Cc1c[nH]cn1)[C@@H](C)O)[C@@H](C)O)C(=O)N[C@@H](CC(=O)O)C(=O)N[C@@H](C)C(=O)N[C@@H](CCCNC(=N)N)C(=O)N[C@@H](C)C(=O)N[C@@H](C)C(=O)N[C@@H](CCCCNC(=O)COCCOCCNC(=O)COCCOCCNC(=O)CC[C@H](NC(=O)CCCCCCCCCCCCCCCCC(=O)O)C(=O)O)C(=O)N[C@@H](CC(=O)O)C(=O)N[C@@H](Cc1ccccc1)C(=O)N[C@H](C(=O)N[C@@H](CCC(N)=O)C(=O)N[C@@H](Cc1c[nH]c2ccccc12)C(=O)N[C@@H](CC(C)C)C(=O)N[C@@H](CCS(C)(=O)=O)C(=O)N[C@@](C)(CC(=O)O)C(=O)N[C@H](C(=O)O)[C@@H](C)O)C(C)C [TP735] (H-H[Aib]QGTFTSDYSKYLDARAAK([AEEA-AEEA-γGlu-C18 diacid])DFVQWL[Met(O2)][αMeD]T-OH; N-terminus assumed)
0.8	< 5	< 5	0.76	–	CC(C)C[C@H](NC(=O)[C@H](Cc1ccc(O)cc1)NC(=O)[C@H](CCCCN)NC(=O)[C@H](CO)NC(=O)[C@H](Cc1ccc(O)cc1)NC(=O)[C@H](CC(=O)O)NC(=O)[C@H](CO)NC(=O)[C@@H](NC(=O)[C@H](Cc1ccccc1)NC(=O)[C@@H](NC(=O)CNC(=O)[C@H](CCC(N)=O)NC(=O)[C@](C)(CO)NC(=O)[C@@H](N)Cc1c[nH]cn1)[C@@H](C)O)[C@@H](C)O)C(=O)N[C@@H](CC(=O)O)C(=O)N[C@@H](C)C(=O)N[C@@H](CCCNC(=N)N)C(=O)N[C@@H](C)C(=O)N[C@@H](C)C(=O)N[C@@H](CCC(N)=O)C(=O)N[C@@H](CCCCNC(=O)COCCOCCNC(=O)COCCOCCNC(=O)CC[C@H](NC(=O)CCCCCCCCCCCCCCCCC(=O)O)C(=O)O)C(=O)N[C@@H](Cc1ccccc1)C(=O)N[C@H](C(=O)N[C@@H](CCC(N)=O)C(=O)N[C@@H](Cc1c[nH]c2ccccc12)C(=O)N[C@@H](CC(C)C)C(=O)N[C@@H](CCS(C)(=O)=O)C(=O)N[C@@](C)(CC(=O)O)C(=O)N[C@H](C(N)=O)[C@@H](C)O)C(C)C [TP617] (H-H[αMeS]QGTFTSDYSKYLDARAAQK([AEEA-AEEA-γGlu-C18 diacid])FVQWL[Met(O2)][αMeD]T-NH2)
0.7	< 5	< 5	–	0.35	CC(C)C[C@H](NC(=O)[C@H](Cc1ccc(O)cc1)NC(=O)[C@H](CCCCN)NC(=O)[C@H](CO)NC(=O)[C@H](Cc1ccc(O)cc1)NC(=O)[C@H](CC(=O)O)NC(=O)[C@H](CO)NC(=O)[C@@H](NC(=O)[C@H](Cc1ccccc1)NC(=O)[C@@H](NC(=O)CNC(=O)[C@H](CCC(N)=O)NC(=O)C(C)(C)NC(=O)[C@@H](N)Cc1c[nH]cn1)[C@@H](C)O)[C@@H](C)O)C(=O)N[C@@H](CC(=O)O)C(=O)N[C@@H](C)C(=O)N[C@@H](CCCNC(=N)N)C(=O)N[C@@H](C)C(=O)N[C@@H](C)C(=O)N[C@@H](CCCCNC(=O)COCCOCCNC(=O)COCCOCCNC(=O)CC[C@H](NC(=O)CCCCCCCCCCCCCCCCC(=O)O)C(=O)O)C(=O)N[C@@H](CC(=O)O)C(=O)N[C@@H](Cc1ccccc1)C(=O)N[C@H](C(=O)N[C@@H](CCC(N)=O)C(=O)N[C@@H](Cc1c[nH]c2ccccc12)C(=O)N[C@@H](CC(C)C)C(=O)N[C@@H](CCS(C)(=O)=O)C(=O)N[C@@H](CCC(=O)O)C(=O)N[C@H](C(N)=O)[C@@H](C)O)C(C)C [TP672] (H-H[Aib]QGTFTSDYSKYLDARAAK([AEEA-AEEA-γGlu-C18 diacid])DFVQWL[Met(O2)]ET-NH2; N-terminus assumed)
<0.01	–	–	> 5	–	CC(C)C[C@H](NC(=O)[C@H](Cc1c[nH]c2ccccc12)NC(=O)[C@H](CCC(N)=O)NC(=O)[C@@H](NC(=O)[C@H](Cc1ccccc1)NC(=O)[C@H](CC(=O)O)NC(=O)[C@H](CCCCNC(=O)COCCOCCNC(=O)COCCOCCNC(=O)CC[C@H](NC(=O)CCCCCCCCCCCCCCCCC(=O)O)C(=O)O)NC(=O)[C@H](C)NC(=O)[C@H](C)NC(=O)[C@H](CCCNC(=N)N)NC(=O)[C@H](C)NC(=O)[C@](C)(CC(=O)O)NC(=O)[C@H](CC(C)C)NC(=O)[C@H](Cc1ccc(O)cc1)NC(=O)[C@H](CCCCN)NC(=O)[C@H](CO)NC(=O)[C@H](Cc1ccc(O)cc1)NC(=O)[C@H](CC(=O)O)NC(=O)[C@H](CO)NC(=O)[C@@H](NC(=O)[C@H](Cc1ccccc1)NC(=O)[C@@H](NC(=O)CNC(=O)[C@H](CCC(N)=O)NC(=O)C(C)(C)NC(=O)[C@@H](N)Cc1c[nH]cn1)[C@@H](C)O)[C@@H](C)O)C(C)C)C(=O)N[C@@H](CCS(C)(=O)=O)C(=O)N[C@@](C)(CC(=O)O)C(=O)N[C@H](C(N)=O)[C@@H](C)O [TP610] (H-H[Aib]QGTFTSDYSKYL[αMeD]ARAAK([AEEA-AEEA-γGlu-C18 diacid])DFVQWL[Met(O2)][αMeD]T-NH2; N-terminus assumed)
